In patent publication US8168193B2, “Molecules, compositions, methods and kits for applications associated with flaviviruses” (National University of Singapore, priority 2003, dated 2012):
No end group written: not given here.

Columns and labels:
WNV [1] = details: Vero cells, EDTA 3-12 mM, 2 hrs at 37° C.
[2] = system: 105-kDa cell receptor protein; test: Virus Overlay Protein Binding Assay (VOPBA) on Vero plasma membrane proteins; details: for West Nile virus binding after removal of papain (VOPBA): Vero cells, papain 50 mU/ml 45 minutes, 0, 2 and 4 hours after removal, with or without cycloheximide 100 μg/ml; for West Nile virus binding to treated membrane proteins of Vero cells (VOPBA): Vero plasma membrane proteins
West Nile virus [3] = test: Protease, phospholipase, glycosidase, periodate and lectin pretreatment of Vero cells, then West Nile virus infection, plaque assay; type: cell-based; details: Vero cells pretreated 45 min at 25° C.; for effect of pretreatment of Vero cells on West Nile virus entry/infection: plaque assay at 12 hours p.i.
Procedure: Cell monolayers (Vero cells or N2A) of approximately 5×10^6 cells were washed twice with phosphate buffer saline (PBS) before enzyme treatment. Cell monolayers were incubated with the proteases and phospholipases, glycosidases and lectins (as listed below) in PBS at a pH of 7.0 for 45 min at 25° C. […] Cell monolayers were then incubated with West Nile virus (MOI=10) at 37° C. for 1 hour. Excess virus particles were inactivated with sodium citrate buffer (pH 2.8) for 10 minutes and the cell monolayer washed twice with PBS. Vero cells were then incubated at 37° C. for 12 hours. At 12 hours p.i., virus titers from the treated samples were determined by plaque assays. Three independent experiments were conducted for each set of enzymes used.
The enzymes used were; Proteases: Proteinase K (EC 3.4.21.64) from Tritirachium album, concentration of 10 μg/ml, 1 μg/ml & 0.1 μg/ml; α-chymotrypsin (EC 3.4.21.1) from bovine pancreas, concentration of 10 μg/ml & 1 μg/ml; trypsin (EC 3.4.21.4) from bovine pancreas, concentration of 10 μg/ml, 1 μg/ml & 0.1 μg/ml; Bromelain (EC 3.4.22.32) from pineapple stem, concentration of 20 mUnit/ml, 2 mUnit/ml & 0.2 mUnit/ml; Papain (EC 3.4.22.2) from Carica papaya, concentration of 50 mUnit/ml & 10 mUnit/ml. Phospholipases: Phospholipase A2 (EC 3.1.1.4) from bovine pancreas, concentration of 1 UNIT/ml & 0.1 UNIT/ml; Phospholipase C (EC 3.1.1.4.3) from Clostridium perfringes, concentration of 10 UNIT/ml & 1 UNIT/ml; Phospholipase D (EC 3.1.4.4) from peanut, concentration of 100 UNIT/ml & 10 UNIT/ml; Glycosidases: Endoglycosidase H (EC 3.2.1.96) from Streptomyces plicatus, concentration of 100 mUNIT/ml & 10 mUNIT/ml; O-glycosidase (EC3.2.1.97) from Diploccus pneumoniae, concentration of 1 mUNIT/ml & 0.1 mUNIT/ml; α-mannosidase (EC 3.2.1.24) from almonds, concentration of 1000 μ/ml, 100 μg/ml & 10 μg/ml; α-Fucosidase (EC 3.2.1.11) from almond meal, concentration of 100 mUNIT/ml & 10 mUNIT/ml; Heparinase I (EC 4.2.2.7) and Heparinase III (EC 4.2.2.2.8) from Flavobacterium heparinum, concentration of 1 UNIT/ml & 0.1 UNIT/ml. Lectins: Concanavalin-A from Jack bean, wheat germ agglutinin from Triticum vulgaris, phytohemagglutinin from Phaseolus spp., concentration of 1000 μg/ml & 100 μg/ml; Sodium periodate concentration of 1 mM & 0.1 mM. Cell viability after enzyme treatment was assessed by Trypan blue staining and observation under phase contrast microscope BX 60.
The enzymes or chemicals were used at concentrations known to be effective in reducing the entry of other known viruses (Borrow and Oldstone, 1992; Ramos-Castaneda et al., 1997; Salas-Benito and del Angel, 1997; Martinez-Barragan and del Angel, 2001). Results are expressed as the number of log unit inhibition with respect to untreated samples. At the same time, cell viability after treatments was also assessed by Trypan blue exclusion method.

[4] = system: 105-kDa cell receptor protein; test: Virus Overlay Protein Binding Assay (VOPBA) on N2A plasma membrane proteins
WNV [5] = test: Competitive inhibition of WNV entry into Vero cells with soluble recombinant WNV envelope DIII; type: cell-based, West Nile virus; details: 5 to 100 μg/ml, 30 min at 37° C.
Procedure: (§1) Vero cells were first incubated with different concentration (5 to 100 μg/ml) of DIII protein or BSA for 30 min at 37° C. Excess or unbound protein is removed by washing thrice with PBS. Radiolabeled WNV or Dengue virus (250 plaque forming unit, PFU) is added and incubated for 1 h at 37° C. Virus entry into Vero cells was determined by radioactive counts from a scintillation counter.

Dengue virus = test: Competitive inhibition of Dengue virus entry into Vero cells with soluble recombinant WNV envelope DIII; type: cell-based; details: at high concentration used
Procedure: as §1

West Nile virus [6] = test: Competitive physiological ligand binding assay, virus entry into Vero cells; type: cell-based; details: Vero cells incubated with ligand 1 hr, then radiolabeled virus 1 hr at 37° C.
Procedure: Competitive physiological ligand binding assay with fibronectin, vitronectin, heparin, chrondriotin sulphate, laminin and the peptides RGD1 and RGE1 reported in the sequence listing as SEQ ID NO: 6 and SEQ ID NO:7 was carried out. In particular Vero cells were incubated with different concentrations of ECM proteins, RGD peptides, or anti-integrin antibodies at 4° C. or 37° C. for 1 hr, washed, incubated with 50 μl of radiolabeled WNV, JEV at 37° C. for 1 hr and assessed for virus entry.

With O=C(O)CN(CCN(CC(=O)O)CC(=O)O)CC(=O)O [EDTA] the “binding and subsequent entry of West Nile virus” value (WNV [1]) was “did not block”.

For C[C@@H]1C[C@@H]([C@H](O)CC2CC(=O)NC(=O)C2)C(=O)[C@@H](C)C1 [cycloheximide], the “West Nile virus binding after removal of papain (VOPBA)” value [2] was “virus binding was also observed”.

[Na+].[O-][I+3]([O-])([O-])[O-] [sodium periodate] was tested, and the “effect of pretreatment of Vero cells on West Nile virus entry/infection” value (shortened to “effect … on West Nile virus entry/infection”) (West Nile virus [3]) was “substantially reduced” and the “West Nile virus binding to treated membrane proteins of Vero cells (VOPBA)” value (“West Nile virus binding … of Vero cells (VOPBA)” below) [2] was “reduced in a dosage-dependent manner”.

OCCS [β-mercaptoethanol] was tested, and the “West Nile virus binding to treated membrane proteins of N2A cells (VOPBA)” value (“West Nile virus binding … of N2A cells (VOPBA)” for short) [4] was “did not disrupt virus binding” and the “West Nile virus binding … of Vero cells (VOPBA)” value [2] was “did not disrupt virus binding”.

Concanavalin-A was tested, and the “effect … on West Nile virus entry/infection” value (West Nile virus [3]) was “prevented the entry” and the “West Nile virus binding … of Vero cells (VOPBA)” value [2] was “block the binding”.

With “DIII protein: soluble His-tagged recombinant West Nile virus envelope domain III (350-390), comprising SEQ ID NO: 19 (SIPKLEIAGXFKDL; X: residue not identified in the source)” the “inhibition of entry of WNV into Vero cells” value (WNV [5]) was “significantly blocked” and the “inhibition of entry of Dengue virus into Vero cells” value (Dengue virus) was “slightly block”.

For Heparinase I, the “effect … on West Nile virus entry/infection” value (West Nile virus [3]) was “minimal effect”.

For Heparinase III, the “effect … on West Nile virus entry/infection” value (West Nile virus [3]) was “minimal effect”.

For O-glycosidase, the “effect … on West Nile virus entry/infection” value (West Nile virus [3]) was “minimal effect”, the “West Nile virus binding … of N2A cells (VOPBA)” value [4] was “did not affect” and the “West Nile virus binding … of Vero cells (VOPBA)” value [2] was “did not affect”.

For “RGD peptide: peptide RGD1 reported in the sequence listing as SEQ ID NO: 6 (RFDS; RGD1 amino acid sequence)”, the “inhibition of West Nile virus infection by competitive ligands” value (“inhibition … by competitive ligands” for short) (West Nile virus [6]) was “partial inhibition”.

With fibronectin the “inhibition … by competitive ligands” value (West Nile virus [6]) was “partial inhibition”.

In the case of laminin, the “inhibition … by competitive ligands” value (West Nile virus [6]) is reported as “partial inhibition”.

phytohemagglutinin was tested, and the “West Nile virus binding … of Vero cells (VOPBA)” value [2] was “no effect”.

α-Fucosidase was tested, and the “effect … on West Nile virus entry/infection” value (West Nile virus [3]) was “minimal effect”.

With α-mannosidase the “effect … on West Nile virus entry/infection” value (West Nile virus [3]) was “significant inhibition”, the “West Nile virus binding … of N2A cells (VOPBA)” value [4] was “No binding” and the “West Nile virus binding … of Vero cells (VOPBA)” value [2] was “No binding”.

B1: Papain (protein, UniProt P00784 134-345, looked up)
Papain: IPEYVDWRQKGAVTPVKNQGSCGSCWAFSAVVTIEGIIKIRTGNLNEYSEQELLDCDRRSYGCNGGYPWSALQLVAQYGIHYRNTYPYEGVQRYCRSREKGPYAAKTDGVRQVQPYNEGALLYSIANQPVSVVLEAAGKDFQLYRGGIFVGPCGNKVDHAVAAVGYGPNYILIKNSWGTGWGENGYIRIKRGTGNSYGVCGLYTSSFYPVKN
notes: Papain (EC 3.4.22.2) from Carica papaya, a cysteine endopeptidase
With B1 the “log unit inhibition of West Nile virus infection” value (West Nile virus [3]; virus titers at 12 hours p.i., with respect to untreated samples) was ~5 log unit, the “West Nile virus binding … of N2A cells (VOPBA)” value [4] was “abolished” and the “West Nile virus binding after removal of papain (VOPBA)” value [2] was “No virus binding”. For the same molecule, the “West Nile virus binding … of Vero cells (VOPBA)” value [2] was “abolished”.

B2: Endoglycosidase H (protein, UniProt P04067 43-313, looked up)
Endo-beta-N-acetylglucosaminid …: APAPVKQGPTSVAYVEVNNNSMLNVGKYTLADGGGNAFDVAVIFAANINYDTGTKTAYLHFNENVQRVLDNAVTQIRPLQQQGIKVLLSVLGNHQGAGFANFPSQQAASAFAKQLSDAVAKYGLDGVDFDDEYAEYGNNGTAQPNDSSFVHLVTALRANMPDKIISLYNIGPAASRLSYGGVDVSDKFDYAWNPYYGTWQVPGIALPKAQLSPAAVEIGRTSRSTVADLARRTVDEGYGVYLTYNLDGGDRTADVSAFTRELYGSEAVRTP
notes: Endoglycosidase H (EC 3.2.1.96) from Streptomyces plicatus
For B2, the “effect … on West Nile virus entry/infection” value (West Nile virus [3]) was “significant inhibition”, the “West Nile virus binding … of N2A cells (VOPBA)” value [4] was “No binding” and the “West Nile virus binding … of Vero cells (VOPBA)” value [2] was “No binding”.

B3: vitronectin (protein, UniProt P04004 20-478, looked up)
Vitronectin: DQESCKGRCTEGFNVDKKCQCDELCSYYQSCCTDYTAECKPQVTRGDVFTMPEDEYTVYDDGEEKNNATVHEQVGGPSLTSDLQAQSKGNPEQTPVLKPEEEAPAPEVGASKPEGIDSRPETLHPGRPQPPAEEELCSGKPFDAFTDLKNGSLFAFRGQYCYELDEKAVRPGYPKLIRDVWGIEGPIDAAFTRINCQGKTYLFKGSQYWRFEDGVLDPDYPRNISDGFDGIPDNVDAALALPAHSYSGRERVYFFKGKQYWEYQFQHQPSQEECEGSSLSAVFEHFAMMQRDSWEDIFELLFWGRTSAGTRQPQFISRDWHGVPGQVDAAMAGRIYISGMAPRPSLAKKQRFRHRNRKGYRSQRGHSRGRNQNSRRPSRATWLSLFSSEESNLGANNYDDYRMDWLVPATCEPIQSVFFFSGDKYYRVNLRTRRVDTVDPPYPRSIAQYWLGCPAPGHL
notes: ECM protein, physiological ligand for integrin αVβ3
B3 was tested, and the “inhibition … by competitive ligands” value (West Nile virus [6]) was “partial inhibition”.
